Test results from publication PMC7937321 (Genes and Environment, 2021).

Key:
TK6 cells = experiment: Toxicoproteomic analysis of treated TK6 cells (LC-MS/MS, DEPs, enrichment analysis); type: cell-based, human; conditions: specific DEPs 24-h 800 μg/mL
Method: We conducted a proteomic analysis using TK6 cells treated by 4-nitroanthranilic acid that was negative in the short-term treatment and positive in the 24 h treatment. HC Blue No. 2 gave also same test results. […]
Raw MS data were processed by MaxQuant (version 1.6.3.3) supported by the Andromeda search engine for peak detection and quantification. […]
All NaN values of log2 LFQ intensities were converted to − 7, which is approximately equivalent to the minimum value of the LFQ intensities observed in the present study. Then, fold change values were calculated by dividing LFQ intensities (antilogarithms of the log2 LFQ intensities) into sample treated groups by intensities in non-treated (control) groups, respectively (4 and 24 h treated groups). Then, log2 fold changes were calculated. […]

rodent = conditions: rodent; ref [20]-[41], Table 2; cited from earlier work
[1] = tested on: L5178Y mouse lymphoma cells; conditions: ref [27], [46]-[53], Table 3, cited from earlier work
[2] = Cytotoxicity in the TK6 assay (CE, RS, RSG, RTG); conditions: human; for viability at 24 h, 173.7 μg/mL: 173.70 μg/mL; for viability at 24 h, 277.9 μg/mL: 277.90 μg/mL; for viability at 4 h, 444.7 μg/mL: dose 444.70 μg/mL
Method: Briefly, test substances were dissolved in an appropriate solvent (DMSO or ethanol) and then serially diluted to prepare final concentrations. […] The 4 h and 24 h treatments were conducted by shaking and static exposures, respectively. After treatment with test substances, cells were centrifuged (1000 rpm, 5 min), supernatants were removed, and cells were washed with a serum-free medium or Hank’s Balanced Salt Solution. After centrifugation (1000 rpm, 5 min) to remove the supernatant, cells (2 × 10^7 cells) were dispersed in an RPMI medium containing 10% serum, and cell concentration was measured. Treated cells were cultured at 37 °C with 5% CO2 condition and used for TK6 assays. At that time, to calculate the cloning efficiency (CE) (Eq. 1), the cells were cultured in a 96-well microplate at a concentration of about 1.6 cells/well for 2 weeks.
CE, the cell colony formation rate, was calculated using Eq. 1 according to the Poisson distribution equation. EW was the number of wells without colonies, and TW was the total number of wells. N was the average number of cells per well (N = 1.6). 1 CE=−lnEW/TW/N
Additionally, CE was adjusted by the following calculation (Eq. 2) due to cell loss when exposure caused cytotoxicity. “The number of cells at the end of the treatment” was the number of cells obtained after centrifugation at the end of the treatment in the above-described exposure treatment of the test substance. The “cell number at the start of treatment” was 2 × 10^7. 2 AdjustedCE=CE×number of cellsatendof treatment/number of cellsatthe start of treatment
CE0 seeding, in which cells were seeded immediately after treatment, and CE3 seeding, in which cells were seeded 3 days after treatment, to examine cell viability in the TK6 assay described below. The relative cell viability RS0 (%) just after the treatment with the test substance was calculated from CE0, following Eq. 3. The survival rate of the negative control group was defined as 100%. 3 RS0%=adjusted CE0 of treatment culture/adjusted CE0 of solvent control×100
The TK6 assay is conducted between 20 and 10% RS0 as a maximum dose if cytotoxicity is observed. […] When the main TK6 assay was difficult to conduct under the condition of RS0 values from 20 to 10%, the test was conducted between 20 and 10% relative total growth (RTG), described later, as a maximum dose.
Besides RS0, relative suspension growth (RSG) and RTG as other cytotoxicity indices (Eq. 4) were used. When cells were cultured for 3 days after treatment with the test substance, suspension cell growth ratio 1 (SG1) was the growth ratio from day 0 to day 1 (cell concentration on day 1/cell concentration on day 0). The suspension cell growth ratio 2 (SG2) was the growth ratio from day 1 to day 2 (cell concentration on day 2/cell concentration on day 1). The RSG value was calculated by dividing the total SG value of the untreated group for 3 days by the total SG value of the treated group for the same 3 days (Eq. 4).
On the third day of culture, CE3 plates for determining plating efficiency and mutant frequency (MF) plates for mutation detection were prepared. CE3 plates were seeded in 96-well microplates at a concentration of about 1.6 cells/well.

[3] = TK6 cells with rat liver S9 mix, CE0 (%), cell viability on Day 0, Short treatment, +S9 mix
[4] = TK6 cells with rat liver S9 mix, CE3 (%), cell viability on Day 3, Short treatment, +S9 mix
[5] = TK6 cells without S9 mix, CE0 (%), cell viability on Day 0, 24 h treatment, -S9 mix
[6] = TK6 cells without S9 mix, CE0 (%), cell viability on Day 0, Short treatment, -S9 mix
[7] = TK6 cells without S9 mix, CE3 (%), cell viability on Day 3, 24 h treatment, -S9 mix
[8] = TK6 cells without S9 mix, CE3 (%), cell viability on Day 3, Short treatment, -S9 mix

In the case of `Nc1cc([N+](=O)[O-])ccc1C(=O)O` [4-Nitroanthranilic acid], the “Count: GO:0005515 ~ protein binding” value (TK6 cells; Down-regulated) is given as 34, the “Count: GO:0005515 ~ protein binding” value (TK6 cells; Up-regulated) is given as 88 and the “Carcinogenicity Studies” value (rodent) is given as “Neg”. The “MLA (TK gene locus), With S9” value ([1]; with S9) was “Pos”, the “MLA (TK gene locus), Without S9” value ([1]; without S9) was “Equivocal^d” and the viability at 4 h, 173.7 μg/mL ([2]; TK6 cells with rat liver S9 mix, CE0 (%), cell viability on Day 0, Short treatment, +S9 mix, dose 173.7 μg/mL) was 84.1%. It also gave a viability at 4 h, 277.9 μg/mL ([2]; TK6 cells with rat liver S9 mix, CE0 (%), cell viability on Day 0, Short treatment, +S9 mix, dose 277.9 μg/mL) of 98%, a viability at 4 h, 445 μg/mL [2, 3] of 72.7% and a viability at 4 h, 712 μg/mL [2, 3] of 79.3%. It also gave a viability at 4 h, 1138 μg/mL [2, 3] of 108%, a viability at 4 h, 1821 μg/mL [2, 3] of 3.3% and a viability at 4 h, 173.7 μg/mL ([2]; TK6 cells with rat liver S9 mix, CE3 (%), cell viability on Day 3, Short treatment, +S9 mix, dose 173.7 μg/mL) of 70.6%. For the same compound, the viability at 4 h, 277.9 μg/mL ([2]; TK6 cells with rat liver S9 mix, CE3 (%), cell viability on Day 3, Short treatment, +S9 mix, dose 277.9 μg/mL) was 66.7%, the viability at 4 h, 445 μg/mL [2, 4] was 81.6% and the viability at 4 h, 712 μg/mL [2, 4] was 98%. The viability at 4 h, 1138 μg/mL [2, 4] was 84.1%, the viability at 4 h, 1821 μg/mL [2, 4] was 44.6% and the viability at 24 h, 173.7 μg/mL [2, 5] was 47.4%. The viability at 24 h, 277.9 μg/mL [2, 5] was 23.4%, the viability at 24 h, 444.7 μg/mL ([2]; TK6 cells without S9 mix, CE0 (%), cell viability on Day 0, 24 h treatment, -S9 mix, 444.70 μg/mL) was 42% and the viability at 24 h, 711.5 μg/mL [2, 5] was 42%. The viability at 24 h, 1138.4 μg/mL ([2]; TK6 cells without S9 mix, CE0 (%), cell viability on Day 0, 24 h treatment, -S9 mix, 1138.4 μg/mL) was 30.4%, the viability at 24 h, 1821.4 μg/mL [2, 5] was 24.4% and the viability at 4 h, 173.7 μg/mL ([2]; TK6 cells without S9 mix, CE0 (%), cell viability on Day 0, Short treatment, -S9 mix, dose 173.70 μg/mL) was 120%. It also gave a viability at 4 h, 277.9 μg/mL ([2]; TK6 cells without S9 mix, CE0 (%), cell viability on Day 0, Short treatment, -S9 mix, dose 277.90 μg/mL) of 77%, a viability at 4 h, 444.7 μg/mL [2, 6] of 77% and a viability at 4 h, 711.5 μg/mL [2, 6] of 74.8%. For the same compound, the viability at 4 h, 1138.4 μg/mL [2, 6] was 46%, the viability at 4 h, 1821.4 μg/mL [2, 6] was 29.4% and the viability at 24 h, 173.7 μg/mL [2, 7] was 84.1%. It also gave a viability at 24 h, 277.9 μg/mL [2, 7] of 84.1%, a viability at 24 h, 711.5 μg/mL [2, 7] of 68.7% and a viability at 24 h, 1821.4 μg/mL [2, 7] of 43.3%. The viability at 4 h, 173.7 μg/mL ([2]; TK6 cells without S9 mix, CE3 (%), cell viability on Day 3, Short treatment, -S9 mix, dose 173.70 μg/mL) was 89.3%, the viability at 4 h, 277.9 μg/mL ([2]; TK6 cells without S9 mix, CE3 (%), cell viability on Day 3, Short treatment, -S9 mix, dose 277.90 μg/mL) was 77% and the viability at 4 h, 444.7 μg/mL [2, 8] was 105%. For the same compound, the viability at 4 h, 711.5 μg/mL [2, 8] was 101%, the viability at 4 h, 1138.4 μg/mL [2, 8] was 95% and the viability at 4 h, 1821.4 μg/mL [2, 8] was 105%.
